Measurements as given in patent US20250034216A1, “STEREOSELECTIVE COVALENT LIGANDS FOR ONCOGENIC AND IMMUNOLOGICAL PROTEINS” (The Scripps Research Institute, priority 2021, published 2025).

Legend:
Test in all cases: IA-DTB cysteine engagement
Assay type in all cases: binding
[1] = target: T1, CKAP4_C100 (Homo sapiens, UniProt Q07065); conditions: 22Rv1 cells, 20 μM probe, 1 h, relative to DMSO
T1 construct: endogenous in cells; host or cells: 22Rv1
T1 sequence (Q07065 1-602): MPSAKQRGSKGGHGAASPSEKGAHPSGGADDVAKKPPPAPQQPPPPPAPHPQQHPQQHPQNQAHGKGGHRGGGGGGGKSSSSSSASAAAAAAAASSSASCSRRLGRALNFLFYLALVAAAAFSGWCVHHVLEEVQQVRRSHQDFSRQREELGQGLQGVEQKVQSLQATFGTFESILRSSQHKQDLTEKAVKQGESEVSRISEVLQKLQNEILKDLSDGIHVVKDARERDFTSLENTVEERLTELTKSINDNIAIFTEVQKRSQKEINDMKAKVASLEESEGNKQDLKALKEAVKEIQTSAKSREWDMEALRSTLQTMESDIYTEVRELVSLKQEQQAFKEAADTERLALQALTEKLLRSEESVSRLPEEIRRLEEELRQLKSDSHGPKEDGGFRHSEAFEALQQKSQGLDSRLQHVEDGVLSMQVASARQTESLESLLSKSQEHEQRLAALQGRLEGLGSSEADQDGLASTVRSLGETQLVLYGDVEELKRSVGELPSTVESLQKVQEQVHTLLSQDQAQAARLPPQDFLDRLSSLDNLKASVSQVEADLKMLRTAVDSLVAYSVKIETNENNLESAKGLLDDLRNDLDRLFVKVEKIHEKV
Method in brief: (§1)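 Competitive chemoproteomics: residual cysteine reactivity toward IA-DTB in lysates from probe-treated cells was quantified by TMT reporter ions relative to DMSO-treated controls. Replicates sharing cell line, probe, concentration and duration were averaged.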

[2] = target: T2, DCAF1_C1113 (Homo sapiens, UniProt Q9Y4B6); conditions: 22Rv1 cells, 20 μM probe, 1 h, relative to DMSO
T2 construct: endogenous in cells; host or cells: 22Rv1
T2 sequence (Q9Y4B6 whole entry): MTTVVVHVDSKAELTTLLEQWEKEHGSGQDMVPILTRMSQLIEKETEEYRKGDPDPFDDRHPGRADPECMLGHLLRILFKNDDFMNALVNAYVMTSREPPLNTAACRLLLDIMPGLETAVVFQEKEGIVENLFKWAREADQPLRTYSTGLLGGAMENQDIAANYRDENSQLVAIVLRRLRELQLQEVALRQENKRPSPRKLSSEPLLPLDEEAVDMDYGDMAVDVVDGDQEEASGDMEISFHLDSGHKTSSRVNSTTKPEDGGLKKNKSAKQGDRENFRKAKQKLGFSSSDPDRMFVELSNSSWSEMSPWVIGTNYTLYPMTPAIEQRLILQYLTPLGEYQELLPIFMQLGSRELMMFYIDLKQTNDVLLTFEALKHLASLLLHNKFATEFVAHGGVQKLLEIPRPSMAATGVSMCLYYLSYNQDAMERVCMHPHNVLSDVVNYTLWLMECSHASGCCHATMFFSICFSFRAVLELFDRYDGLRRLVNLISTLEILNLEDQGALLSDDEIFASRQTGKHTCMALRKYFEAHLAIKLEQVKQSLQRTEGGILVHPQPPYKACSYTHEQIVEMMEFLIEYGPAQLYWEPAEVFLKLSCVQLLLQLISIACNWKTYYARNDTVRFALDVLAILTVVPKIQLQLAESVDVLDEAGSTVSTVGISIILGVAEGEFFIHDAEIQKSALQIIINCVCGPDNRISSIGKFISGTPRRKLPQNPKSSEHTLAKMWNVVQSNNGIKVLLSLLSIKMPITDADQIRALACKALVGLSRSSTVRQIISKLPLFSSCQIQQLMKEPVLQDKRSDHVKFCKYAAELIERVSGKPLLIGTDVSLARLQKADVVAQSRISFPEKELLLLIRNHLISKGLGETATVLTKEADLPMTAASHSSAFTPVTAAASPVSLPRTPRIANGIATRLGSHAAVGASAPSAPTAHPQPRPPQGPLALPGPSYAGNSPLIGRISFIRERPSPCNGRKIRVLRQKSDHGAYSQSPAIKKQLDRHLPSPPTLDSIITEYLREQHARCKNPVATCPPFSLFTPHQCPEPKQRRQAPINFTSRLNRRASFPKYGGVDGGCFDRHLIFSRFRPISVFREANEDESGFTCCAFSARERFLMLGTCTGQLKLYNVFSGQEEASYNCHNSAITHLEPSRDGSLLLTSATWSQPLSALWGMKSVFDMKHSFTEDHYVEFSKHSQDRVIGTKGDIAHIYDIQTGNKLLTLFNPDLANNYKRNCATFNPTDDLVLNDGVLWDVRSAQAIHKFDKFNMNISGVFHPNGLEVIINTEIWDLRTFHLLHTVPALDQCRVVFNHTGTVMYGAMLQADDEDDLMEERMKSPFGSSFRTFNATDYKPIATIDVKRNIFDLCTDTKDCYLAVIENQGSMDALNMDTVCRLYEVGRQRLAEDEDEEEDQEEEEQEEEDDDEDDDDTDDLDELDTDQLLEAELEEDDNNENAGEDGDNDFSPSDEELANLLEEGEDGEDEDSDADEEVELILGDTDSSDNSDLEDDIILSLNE
Method in brief: as §1

[3] = target: T3, YES1_C287 (Homo sapiens, UniProt P07947); conditions: 22Rv1 cells, relative to DMSO; for % engagement YES1_C287: 20 μM probe, 1 h; for % engagement YES1_287: 5 μM probe, 1 h (FIG. 5B)
T3 construct: endogenous in cells; host or cells: 22Rv1
T3 sequence (P07947 whole entry): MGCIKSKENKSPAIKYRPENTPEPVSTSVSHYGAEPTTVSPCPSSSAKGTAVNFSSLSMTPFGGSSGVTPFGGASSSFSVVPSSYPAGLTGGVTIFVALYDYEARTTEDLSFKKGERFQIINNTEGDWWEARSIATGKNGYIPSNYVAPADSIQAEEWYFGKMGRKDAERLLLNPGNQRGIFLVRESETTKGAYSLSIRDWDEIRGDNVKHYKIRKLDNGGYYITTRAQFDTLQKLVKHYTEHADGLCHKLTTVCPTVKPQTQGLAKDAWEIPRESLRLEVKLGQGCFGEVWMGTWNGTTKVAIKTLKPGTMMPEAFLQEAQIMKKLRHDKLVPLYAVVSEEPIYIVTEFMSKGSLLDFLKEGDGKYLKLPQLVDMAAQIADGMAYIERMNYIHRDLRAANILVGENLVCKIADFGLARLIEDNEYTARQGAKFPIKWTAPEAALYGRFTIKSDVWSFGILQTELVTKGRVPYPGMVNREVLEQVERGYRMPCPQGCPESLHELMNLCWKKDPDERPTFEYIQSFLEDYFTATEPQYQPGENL
Method in brief: as §1

[4] = target: T4, CNOT4_C175 (Homo sapiens, UniProt O95628); conditions: 22Rv1 cells, 20 μM probe, 1 h, relative to DMSO
T4 construct: endogenous in cells; host or cells: 22Rv1
T4 sequence (O95628 1-575): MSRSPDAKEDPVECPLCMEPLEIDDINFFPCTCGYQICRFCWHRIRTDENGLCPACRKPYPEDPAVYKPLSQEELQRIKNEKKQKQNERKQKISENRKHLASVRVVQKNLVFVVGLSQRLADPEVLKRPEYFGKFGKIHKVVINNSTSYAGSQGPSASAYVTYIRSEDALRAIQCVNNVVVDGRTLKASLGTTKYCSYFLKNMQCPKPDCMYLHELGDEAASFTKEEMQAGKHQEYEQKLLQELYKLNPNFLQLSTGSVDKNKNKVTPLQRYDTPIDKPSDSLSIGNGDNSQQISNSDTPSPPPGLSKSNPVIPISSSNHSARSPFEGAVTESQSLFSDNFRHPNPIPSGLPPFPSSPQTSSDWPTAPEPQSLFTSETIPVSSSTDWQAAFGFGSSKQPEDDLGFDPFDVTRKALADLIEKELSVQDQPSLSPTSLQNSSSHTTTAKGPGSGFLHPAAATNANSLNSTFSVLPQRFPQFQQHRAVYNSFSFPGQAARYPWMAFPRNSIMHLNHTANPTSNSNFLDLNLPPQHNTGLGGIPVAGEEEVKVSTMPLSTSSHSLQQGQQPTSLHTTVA
Method in brief: as §1

[5] = target: T5, BLOC1S2_C41 (Homo sapiens, UniProt Q6QNY1); conditions: 22Rv1 cells, 20 μM probe, 1 h, relative to DMSO
T5 construct: endogenous in cells; host or cells: 22Rv1
T5 sequence (Q6QNY1 1-142): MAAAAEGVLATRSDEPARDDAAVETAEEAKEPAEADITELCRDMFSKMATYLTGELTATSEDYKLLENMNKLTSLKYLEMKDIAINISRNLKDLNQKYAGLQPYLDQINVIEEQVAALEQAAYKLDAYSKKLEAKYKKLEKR
Method in brief: as §1

Row | Structure (SMILES) | % engagement CKAP4_C100 [1] [%] | % engagement DCAF1_C1113 [2] [%] | % engagement YES1_C287 [3] [%] | % engagement CNOT4_C175 [4] [%] | % engagement BLOC1S2_C41 [5] [%] | % engagement YES1_287 [3] [%]
1 | C=CC(=O)N1C[C@@H](c2ccc(Br)cc2)[C@H]1C(=O)Nc1cccc2cccnc12 [MY-1A, (2S,3R)-1-acryloyl-3-(4-bromophenyl)-N-(quinolin-8-yl)azetidine-2-carboxamide] | 84 | −18 | 5.75 | 0 | 6 | –
2 | C=CC(=O)N1C[C@H](c2ccc(Br)cc2)[C@@H]1C(=O)Nc1cccc2cccnc12 [MY-1B, (2R,3S)-1-acryloyl-3-(4-bromophenyl)-N-(quinolin-8-yl)azetidine-2-carboxamide] | 90.25 | 68.5 | 94.5 | −15 | 70 | 67.13
3 | C=CC(=O)N1C[C@H](c2ccc(Br)cc2)[C@H]1C(=O)Nc1cccc2cccnc12 [MY-3B, (2S,3S)-1-acryloyl-3-(4-bromophenyl)-N-(quinolin-8-yl)azetidine-2-carboxamide] | 93.75 | 26.5 | 42.25 | 76 | 66.5 | –

Second part, the molecule after the results:

Row | % engagement CKAP4_C100 [1] [%] | % engagement DCAF1_C1113 [2] [%] | % engagement YES1_C287 [3] [%] | % engagement CNOT4_C175 [4] [%] | % engagement BLOC1S2_C41 [5] [%] | % engagement YES1_287 [3] [%] | Structure (SMILES)
4 | – | – | – | – | – | 5.50 | CC#CC(=O)N1C[C@H](c2ccc(Br)cc2)[C@@H]1C(=O)Nc1cccc2cccnc12 [MY-45B, (2R,3S)-3-(4-bromophenyl)-1-(but-2-ynoyl)-N-(quinolin-8-yl)azetidine-2-carboxamide]
5 | 78.75 | −1.5 | 0.5 | 76.5 | 3.5 | – | C=CC(=O)N1C[C@H](c2ccc(Br)cc2)[C@H]1C(=O)Nc1cccc2cccnc12 [MY-3A, (2S,3S)-1-acryloyl-3-(4-bromophenyl)-N-(quinolin-8-yl)azetidine-2-carboxamide]
